# Experimental data from patent publication US9833446B2, “Hedgehog pathway inhibition for cartilage tumor and metachondromatosis treatment” (Rhode Island Hospital, priority 2012, dated 2017).
# “Also recorded” adds a separate entry of the source.
# Tests used:
# ATDC5 cells = assay: q-PCR of Ihh and Pthrp expression in inhibitor-treated parental ATDC5 cells; assay type: cell-based, murine; conditions: PD173074 10 nM, UO126 1 μM, n=3, p<0.05
# Text: (§1) FIG. 4a, Left panel, is a bar graph of qPCR results showing increased Col2α1, Col10α1, Ihh, and Pthrp expression in laser-captured cartilaginous cells from exostoses, compared with normal articular cartilage cells (n=4, *p<0.05, Student t test). FIG. 4a, Right panel, is a series of photomicrographs showing immunostaining of paraffin sections from Perichondrial Groove of Ranvier region of Ctsk-KO and Control mice. Note the decreased number of p-Erk+ cells, but increased Ihh expression in Ctsk-KO, compared with Control, mice. FIG. 4b, Left Panel, is a photograph of an immunoblot showing Shp2 levels in ATDC5 chondroprogenitor cell lines stably expressing shRNAs against murine Ptpn11 (ATDC5-KD1, ATDC5-KD2, respectively) or a scrambled control hairpin. […] FIG. 4c is a bar graph showing that FGFR (PD173074, 10 nM) or MEK (UO126, 1 μM) inhibitor treatment of parental ATDC5 cells enhances Ihh and Pthrp expression, as shown by q-PCR (n=3, *p<0.05, Student t test). […] Images of representative posterior paws (i-iv) and knese (v-vii) taken pre-treatment (i, iii, v, vii) and post-treatment with vehicle (ii, vi) or Smoothened inhibitor (SMOi) (iv, viii) for 4 weeks. Note continued development of exostoses and endochromas in Vehicle-treated mice, and their amelioration in SMOi-treated group (arrows). Also, see FIGS. 7a,b and 8a,b.
# Parental ATDC5 cells were purchased from the ATCC and cultured in complete DMEM/F12 medium (1:1) (Invitrogen) as described46. ATDC5 cells stably expressing short hairpin RNAs against murine Shp2 • (oligoA:5′[…] TCTGAATCTT TTTGGAAA (SEQ ID NO:1)); • Oligo B: 5-[…] (SEQ ID NO:2)) or its scrambled control were established by using pSuper(retro)/puro retroviral vector (Oligoengine, Inc) and pEcopac.
# (§2) Quantitative RT-PCR. RNA was extracted from cultured cells or cartilage lesions captured by laser dissection by using the RNeasy kit (Qiagen). cDNA was synthesized using iScript™cDNA Synthesis Kit (Bio-Rad) and q-PCR was performed by using the RT2SYBR®Green qPCR kit. All values were normalized to Gapdh levels, and qPCR data are expressed as fold-increases compared with controls.
# CCPs are rare, rendering detailed biochemical analyses of these cells unfeasible. We therefore tested the effects of Shp2 depletion in ATDC5 chondroid cells by stably expressing either of two shRNAs directed against murine Ptpn11. As in Ctsk-KO mice (FIG. 4a), Fgf18-evoked Erk activation was decreased, while Ihh and Pthrp levels were increased, in Shp2 deficient-ATDC5 cells, compared with cells expressing an shRNA control (FIG. 4b). Conversely, FGFR (PD173074) or MEK (UO126) inhibitor treatment of randomly growing, parental ATDC5 cells led to enhanced Ihh and Pthrp expression (FIG. 4c).
# Ctsk-KO mice = assay: Smoothened inhibitor treatment of Ctsk-KO mice (metachondromatosis model), X-ray, μ-CT and histology; assay type: in vivo; conditions: for number of exostoses / size of exostoses: vs vehicle; for cartilage tumor condition / disease process in Shp2 mutant mice: systemic administration
# Text: as §1
# All animals used for these experiments are shown. […] SMOi was administered by oral gavage to Ctsk-KO mice beginning at post-natal week 5 for four weeks, and mice were euthanized at week 9.
# Microcomputed Tomography (μ-CT) and x-Ray Analysis. X-ray images of the entire skeleton, knees, metatarsals and phalanges were obtained immediately after euthanasia by using a Faxitron X-ray system (Wheeling, Ill.). After fixation in 4% PFA, μ-CT images of skeletal tissues were scanned with the desktop microcomputer graphic imaging system (μ-CT40, Scanco Medical AG, CH). The number and size of exostoses were measured visually based on x-ray images.
# Ihh signaling leads to Pthrp production. […] If so, then blocking or attenuating Ihh signaling might slow and/or prevent MC development. To test this hypothesis, Control (wild type) and Ctsk-KO mice (5/group) were treated with the Smoothened inhibitor PF-04449913 (100 μg/g body weight) or vehicle control (0.5% methylcellulose) by daily gavage, beginning at 5 weeks of age and continuing for the succeeding 4 weeks. The skeletal phenotype was examined by X-ray, μ-CT, and histological analysis at the end of experiment.
# Hedgehog pathway = assay: qPCR of epiphyseal cartilage after oral Smoothened inhibitor in wild type mice; assay type: in vivo; conditions: oral administration for 1 week, n=3, p<0.05
# Text: FIG. 8a is a series of charts showing number and size of exostoses in Ctsk-KO mice post-treatment (n=5) with vehicle or Smoothened inhibitor (SMOi). […] FIG. 8b is a bar graph of qPCR results showing that oral administration of the Smoothened inhibitor SMOi to wild type mice for 1 week blunts the expression of Col2α1, Col10α1, Mmp13 and Gli1 in epiphyseal cartilage (n=3, *p<0.05, student t test).
# as §2
# [1] = Ctsk-KO mice, 100 μg/g body weight, daily gavage, 4 weeks
# [2] = Ctsk-KO mice, 100 μg/g body weight, daily gavage, 4 weeks, listed as SMOi
structure (smiles),measurement,setting,value
N#CC(=C(/N)Sc1ccccc1N)/C(C#N)=C(/N)Sc1ccccc1N [UO126],Ihh expression (q-PCR),ATDC5 cells,enhanced
same,Pthrp expression (q-PCR),ATDC5 cells,enhanced
CN1CC[C@@H](NC(=O)Nc2ccc(C#N)cc2)C[C@@H]1c1nc2ccccc2[nH]1 [PF-04449913],function of multiple joints,Ctsk-KO mice; [1],improved
same,tumor formation (Faxitron radiographs),"Ctsk-KO mice; Ctsk-KO mice, 100 μg/g body weight, daily gavage, 4 weeks from week 5, vs vehicle (0.5% methylcellulose)",ameliorates tumor formation
same,number of exostoses,Ctsk-KO mice; [1],significantly reduced
same,size of exostoses,Ctsk-KO mice; [1],significantly reduced
same,number of exostoses,Ctsk-KO mice; [2],reduction of number; also recorded: decrease in average number of exostoses
same,size of exostoses,Ctsk-KO mice; [2],reduction of number and size
same,cartilage tumor condition / disease process in Shp2 mutant mice,Ctsk-KO mice,reduces the cartilage tumor condition
same,cartilage tumor condition / disease process in Shp2 mutant mice,Ctsk-KO mice; listed as PF-0444993,can stop or slow down the disease process
same,expression of Col2α1 in epiphyseal cartilage (qPCR),Hedgehog pathway,blunts
same,expression of Col10α1 in epiphyseal cartilage (qPCR),Hedgehog pathway,blunts
same,expression of Gli1 in epiphyseal cartilage (qPCR),Hedgehog pathway,blunts
same,expression of Mmp13 in epiphyseal cartilage (qPCR),Hedgehog pathway,blunts
CCN(CC)CCCCNc1ncc2cc(-c3cc(OC)cc(OC)c3)c(NC(=O)NC(C)(C)C)nc2n1 [PD173074],Ihh expression (q-PCR),ATDC5 cells,enhanced
same,Pthrp expression (q-PCR),ATDC5 cells,enhanced
